Results taken from US7365096B2, “Methods for selectively inhibiting Janus tyrosine kinase 3 (Jak3)” (Board of Regents, The University of Texas System, priority 2002, dated 2008).
“Also recorded” adds a separate entry of the source. Read-outs that look alike come from different tables or passages of the source.

Key:
human Jurkat T-cells = assay: Growth / DNA synthesis of non-Jak3 expressing Jurkat cells; type: cell-based
[1] = Kidney function and lipid metabolism in rats on low-salt diet (FIGS. 11A-F); type: in vivo, rat; conditions: 160 mg/kg oral gavage, 14 day therapy
[2] = tested on: LEW or third-party heart allografts; assay: Adoptive transfer of T cells from tolerant recipients into irradiated ACI heart allograft recipients; type: in vivo, rat
Experimental: ACI rat recipients of LEW kidney allografts were treated for 14 days with NC1153 delivered by daily oral gavage. […] ACI rat recipients of LEW kidney allografts were treated for 7 days and thereafter 3×/week up to 90 days with 160 mg/kg NC1153 delivered by daily oral gavage. […] The mechanism of tolerance was examined when irradiated (400 rads) ACI recipients of LEW heart allografts were adoptively transferred with 30×10^6 purified T cells from tolerant recipients.

NF-kB = assay: TNF-α-induced NF-kB DNA binding, EMSA; type: cell-based, human; conditions: same treatment set
Experimental: EMSA. Electrophoretic mobility shift assay (EMSA). Drug or vehicle control (DMSO) treated cells were pelleted by centrifugation (20,000×g for 1 min at 4° C.) and subsequently washed in five volumes of 10 mM HEPES, pH 7.9, 10 mM KCl, 1.5 mM MgCl2, 0.5 mM DTT, […], 5 μg/ml aprotinin, 1 μg/ml pepstatin A and 2 μg/ml leupeptin, centrifuged, then lysed in the same buffer supplemented with 1% NP-40 and incubated for 20 min on ice. The nuclei-containing pellet was resuspended in equal volumes of low salt buffer (10 mM HEPES, 25% glycerol, 1.5 mM MgCl2, 20 mM KCl, 0.5 mM DTT, 0.2 mM EDTA and protease inhibitors) and high salt buffer (low salt buffer containing 800 mM KCl). This fraction was then isolated by centrifugation at 4° C. for 10 min and supernatants saved as nuclear protein extract and stored at −70° C. Gel mobility shift assays were performed to detect Stat5a/b DNA binding activity using a Stat5 DNA binding sequence corresponding to the promoter of the β-casein gene (5′-[…]-3′) or an NF-kB binding element (5′-[…]-3′). Both probes were end-labeled with [^32P]dATP. […]
In FIG. 9A, it can be seen that NC1153 inhibits Jak3 driven transcription factor-Stat5a/b in PHA activated T-cells treated with increasing concentrations of NC1153 in a dose dependent manner as measured via EMSA analysis (upper panel). […]

[3] = rat, in vivo

CN(C)CC1CCCCCCCCCC(CN(C)C)C1=O (mixture of isomers) [649641P (NC1153)]
cell growth / DNA synthesis of Jurkat cells (human Jurkat T-cells): did not inhibit DNA synthesis | cell growth / DNA synthesis of Jurkat cells (human Jurkat T-cells; listed as NC1153): does not block cell growth | nephrotoxicity and lipid metabolism (serum creatinine, clearance, cholesterol, triglycerides, LDL, HDL) [1]: is not nephrotoxic and does not affect lipid metabolism | rejection of LEW heart allografts after transfer of tolerant T cells ([2]; irradiated (400 rads) ACI recipients, 30×10^6 T cells from NC1153-tolerant recipients, irradiated controls 15±1.0): 40.0±15.0 days | rejection of third-party heart allografts after transfer of tolerant T cells ([2]; irradiated ACI recipients, T cells from NC1153-tolerant recipients, n=2): 12±1.0 days | NF-kB activation / DNA binding by TNF-α (EMSA) (NF-kB): not affected; also recorded: no effect | NF-kB activation / DNA binding by TNF-α (EMSA) (NF-kB; listed as NC1153): not affected | HDL [3]: increased HDL | HDL, LDL, or TG levels [3]: no effect | TG or LDL levels [3]: without changing TG or LDL levels | overall toxicity conclusion [3]: free of nephrotoxic and myelotoxic effects with mild lipotoxicity on high-fat challenge | peripheral blood counts (PBC) [3]: Neither 648641P nor CsA reduced PBC
